Measured values taken from ChEMBL document CHEMBL4513161, “CO-ADD screening of MMV (CH) - Pandemic Response Box” (2021).
In brackets after ≈: the same amount, converted by molar mass.

How the values were obtained:
[1] = tested on: Staphylococcus aureus; assay: microbe, parasite or virus in culture; conditions: ATCC 43300, 18 h, ASSAY_TEST Inhibition of Bacterial Growth, detection method Absorption (OD600), MEDIA CAMHB, plate type 384well, NBS, CORNING #3640
[2] = tested on: Candida albicans; assay: microbe, parasite or virus in culture; conditions: ATCC 90028, ASSAY_TEST Inhibition of Fungal Growth, detection method Absorption (OD530), plate type 384well, NBS, CORNING #3640
[3] = tested on: Escherichia coli; assay: microbe, parasite or virus in culture; conditions: ATCC 25922, 18 h, ASSAY_TEST Inhibition of Bacterial Growth, detection method Absorption (OD600), MEDIA CAMHB, plate type 384well, NBS, CORNING #3640
[4] = tested on: Pseudomonas aeruginosa; assay: microbe, parasite or virus in culture; conditions: ATCC 27853, 18 h, ASSAY_TEST Inhibition of Bacterial Growth, detection method Absorption (OD600), MEDIA CAMHB, plate type 384well, NBS, CORNING #3640
[5] = tested on: Acinetobacter baumannii; assay: microbe, parasite or virus in culture; conditions: ATCC 19606, 18 h, ASSAY_TEST Inhibition of Bacterial Growth, detection method Absorption (OD600), MEDIA CAMHB, plate type 384well, NBS, CORNING #3640
[6] = tested on: Pseudomonas aeruginosa; assay: Antibacterial activity against Pseudomonas aeruginosa PAO397 [PAO1 d(mexAB-oprM) d(mexCD-oprJ) d(mexEF-oprN) d(mexJKL) d(mexXY) d(opmH)] (CO-ADD:GN_211); MIC in CAMBH media using NBS plates, by OD(600); format: functional; conditions: ASSAY_TEST Inhibition of Bacterial Growth, detection method Absorption (OD600), MEDIA CAMHB, plate type 384well, CORNING #3640, time 18 hr
[7] = tested on: Klebsiella pneumoniae; assay: microbe, parasite or virus in culture; conditions: ATCC 700603, 18 h, ASSAY_TEST Inhibition of Bacterial Growth, detection method Absorption (OD600), MEDIA CAMHB, plate type 384well, NBS, CORNING #3640
[8] = tested on: Cryptococcus neoformans
[9] = tested on: HEK293; assay: cells; format: functional, Homo sapiens, ATCC CRL1573; conditions: ASSAY_TEST Inhibition of Cell Viability, detection method Resazurin, Fluorescence (ex560/em590), MEDIA DMEM with 10% FBS, plate type 384well, TC, CORNING #3712, time 18 hr, read-out: CC50
[10] = Homo sapiens, ATCC CRL1573, HEK293

| SMILES | MIC [1] [µM] | MIC [2] [µM] | MIC [3] [µM] | MIC [4] [µM] | MIC [5] [µM] | MIC [6] [µM] | MIC [7] [µM] | MIC [8] [µM] | CC50 [9, 10] [µM] | CC50 [9] [µM] |
| --- | --- | --- | --- | --- | --- | --- | --- | --- | --- | --- |
| CN(C(=O)C1(c2ccc(Cl)cc2)CCC1)c1ccccc1 | > 20 | > 20 | > 20 | > 20 | > 20 | > 20 | > 20 | > 20 | > 20 |  |
| Nc1nc(Nc2ccc3nc(-c4ccc(F)cc4)cc(N)c3c2)cc(-c2ccccc2)n1 | 10 (≈ 4.22 µg/mL) | 0.625 (≈ 0.264 µg/mL) | > 20 | > 20 | > 20 | > 20 | > 20 | ≤ 0.156 | 0.751 |  |
| O=C1[C@H](CC[C@H](O)c2ccc(F)cc2)[C@@H](c2ccc(O)cc2)N1c1ccc(F)cc1 [EZETIMIBE] | > 20 | > 20 | > 20 | > 20 | > 20 | > 20 | > 20 | > 20 | > 20 |  |
| O=C(CSc1nnc(Br)n1-c1ccc(C2CC2)c2ccccc12)Nc1ccc(C(=O)O)cc1Cl | > 20 | > 20 | > 20 | > 20 | > 20 | > 20 | > 20 | > 20 | > 20 |  |
| C=CCN(C(=O)OCc1ccc([N+](=O)[O-])cc1)C1CCN(CC[C@](C)(CN(C)S(=O)(=O)c2ccccc2)c2ccccc2)CC1 | > 20 | > 20 | > 20 | > 20 | > 20 | > 20 | > 20 | > 20 | > 20 |  |
| O=c1ccc2ncc(=O)n3c2n1CC3CN1CCC(NCc2cc3c(cn2)OCCC3)CC1 (configuration not stated) | 0.625 (≈ 0.28 µg/mL) | > 20 | 2.5 (≈ 1.12 µg/mL) | 20 (≈ 8.97 µg/mL) | 10 (≈ 4.49 µg/mL) | ≤ 0.156 | > 20 | > 20 | > 20 |  |
| COc1ccc(SCC(=O)N2c3ccccc3Sc3ccccc32)cc1 | > 20 | > 20 | > 20 | > 20 | > 20 | > 20 | > 20 | > 20 | > 20 |  |
| COc1cc2c(O)c3c(c(-c4ccc5c(c4)OCO5)c2cc1OC)C(=O)OC3 [DIPHYLLIN] | > 20 | > 20 | > 20 | > 20 | > 20 | > 20 | > 20 | > 20 | > 20 |  |
| CC1(C)[C@H](C(=O)O)N2C(=O)C[C@H]2S1(=O)=O [SULBACTAM] | > 20 | > 20 | > 20 | 2.5 (≈ 0.583 µg/mL) | > 20 | > 20 |  | > 20 | > 20 |  |
| Clc1ccc(COC(Cn2ccnc2)c2ccc(Cl)cc2Cl)c(Cl)c1 (configuration not stated) |  |  |  |  |  | > 20 |  | 0.625 (≈ 0.26 µg/mL) |  | > 20 |
| CC(Oc1ccc(Cl)cc1Cl)C(=O)NCc1ccc2c(c1)OCO2 (configuration not stated) |  |  |  |  |  |  |  | > 20 | > 20 |  |

Now from value to compound, other results behind:

| MIC [1] [µM] | MIC [2] [µM] | MIC [3] [µM] | MIC [4] [µM] | MIC [5] [µM] | MIC [6] [µM] | MIC [7] [µM] | MIC [8] [µM] | SMILES | CC50 [9, 10] [µM] | CC50 [9] [µM] |
| --- | --- | --- | --- | --- | --- | --- | --- | --- | --- | --- |
| > 20 | > 20 | > 20 | > 20 | > 20 | > 20 | > 20 | > 20 | O=c1cc(OCc2ccccc2)ccn1Cc1ccccc1 | > 20 |  |
| > 20 | > 20 | > 20 | > 20 | > 20 | > 20 | > 20 | 20 (≈ 6.09 µg/mL) | COc1ccc(NC(=O)CC2Sc3ncnn3C2=O)cc1 (configuration not stated) | 19.5 |  |
| 20 (≈ 4.74 µg/mL) | > 20 | 2.5 (≈ 0.593 µg/mL) | 5 (≈ 1.19 µg/mL) | 5 (≈ 1.19 µg/mL) | 2.5 (≈ 0.593 µg/mL) | 2.5 (≈ 0.593 µg/mL) | > 20 | NC[C@H]1OB(O)c2c(OCCCO)cccc21 | > 20 |  |
| > 20 | > 20 | > 20 | > 20 | > 20 | > 20 | > 20 | > 20 | c1cnc(NCc2ccc(CNc3ncccn3)cc2)nc1 [MSX-122] | > 20 |  |
| > 20 | > 20 | > 20 | > 20 | > 20 | > 20 | > 20 | > 20 | CC(=O)N[C@H](C)C(=O)N[C@H](Cc1ccccc1)C(=O)O | > 20 |  |
| ≤ 0.156 | > 20 | 1.25 (≈ 1.17 µg/mL) | 10 (≈ 9.37 µg/mL) | 5 (≈ 4.68 µg/mL) | 5 (≈ 4.68 µg/mL) | 2.5 (≈ 2.34 µg/mL) | 0.312 (≈ 0.293 µg/mL) | N=C(N)NCCCCC(=O)Nc1cc(C(F)(F)F)cc(NC(=O)c2cc(C(=O)Nc3cc(C(F)(F)F)cc(NC(=O)CCCCNC(=N)N)c3O[C@@H]3CCNC3)ncn2)c1O[C@@H]1CCNC1 | > 20 |  |
| > 20 | > 20 | > 20 | > 20 | > 20 | > 20 | > 20 | > 20 | Clc1cc2nc(C3CCNCC3)n(Cc3ccc(CNCCc4c[nH]cn4)cc3)c2cc1Cl | > 20 |  |
| 0.312 (≈ 0.175 µg/mL) | > 20 | 0.313 (≈ 0.175 µg/mL) | 0.625 (≈ 0.349 µg/mL) | > 20 | 0.625 (≈ 0.349 µg/mL) | 10 (≈ 5.59 µg/mL) | > 20 | CN(C)[C@@H]1C(=O)C(C(N)=O)=C(O)[C@@]2(O)C(=O)C3=C(O)c4c(O)c(NC(=O)CN5CCCC5)cc(F)c4C[C@H]3C[C@@H]12 | > 20 |  |
| > 20 | > 20 | > 20 | > 20 | > 20 | > 20 | > 20 | > 20 | C[C@H](Cn1cnc2c(N)ncnc21)OCP(=O)(O)O [TENOFOVIR ANHYDROUS] | > 20 |  |
| > 20 | > 20 | > 20 | > 20 | > 20 | > 20 | > 20 | > 20 | Cc1nc(-c2ccc(C3N(C)c4ccc(F)cc4C(=O)N3c3ccccc3)s2)cs1 (configuration not stated) | > 20 |  |
| > 20 | > 20 | > 20 | > 20 | > 20 | > 20 | > 20 | > 20 | COc1cc(NC(=O)CN2C(=O)NC(c3ccccc3)(c3ccccc3)C2=O)cc(OC)c1 | > 20 |  |
| > 20 | > 20 | > 20 | > 20 | > 20 | > 20 | > 20 | > 20 | CS(=O)(=O)c1ccc(Oc2ccc(Cl)cc2)cc1 | > 20 |  |
| > 20 | > 20 | > 20 | > 20 | > 20 | > 20 | > 20 | > 20 | CN1CCN(Cc2ccc(-c3cnc4[nH]cc(-c5ccc6[nH]ccc6c5)c4c3)cc2)CC1 | 5.33 |  |
| > 20 | > 20 | > 20 | 20 (≈ 9.03 µg/mL) | > 20 |  | > 20 | > 20 | CCN(CC)CCn1c(=N)n(CC(O)COc2ccc(Cl)cc2Cl)c2ccccc21 (configuration not stated) | 4.49 |  |
| > 20 | > 20 | > 20 |  | > 20 |  | > 20 | > 20 | N=c1n(CCN2CCCCC2)c2ccccc2n1CC(O)COc1ccc(Cl)cc1Cl (configuration not stated) | 6.89 |  |
